Assay results reported in patent US20210386367A1, “DEVICES AND SYSTEMS FOR GASTROINTESTINAL MICROBIOME DETECTION AND MANIPULATION” (Progenity, Inc., priority 2018, published 2021).
In brackets after ≈: the same amount, converted by molar mass. Entries after “also recorded” stand apart in the source; their conditions may differ. Like-named read-outs stand apart in the source and are kept apart here.

Tests used:
[1] = system: Veillonella spp. clinical isolates; assay: MIC distribution against clinical isolates; assay type: cell-based; details: 30 Veillonella spp. isolates
Text: (n=19 V. parvula, n=9 Veillonella spp., n=1 Veillonella dispr., n=1 V. atypica) clinical isolates (μg/mL).
As used herein, “minimum inhibitory concentration” or “MIC” refers to the lowest concentration of an antimicrobial agent, for example, an antimicrobial agent as described herein, required to inhibit the growth of an organism. […] “MIC90” represents the MIC value at which ≥90% of the strains within a test population are inhibited; the 90th percentile.
Many susceptibility testing methods are known in the art and can be used as described herein (see, e.g., Jorgensen and Ferraro (2009) Clinical Infectious Diseases 49:1749-1755; and Maurer et al. (2017) Infectious Disease Reports 9:6839; the entire contents of each of the foregoing are incorporated herein by reference). For example, antimicrobial susceptibility can be determined using conventional culture based methods such as the broth or agar dilution test. In these dilution tests, the bacterial isolate of interest is inoculated onto different media that include serial dilutions of an antimicrobial agent, and incubated under appropriate conditions (e.g., overnight at 37° C.) to allow for growth to occur. Following the incubation period, the media is examined to determine bacterial growth. The lowest concentration of antibiotic that prevents growth represents the minimal inhibitory concentration (MIC). Broth dilution tests can be miniaturized and mechanized allowing for reproducibility and high throughput.

Clostridium spp. = assay: Agar dilution MIC, 10 clinical isolates; assay type: cell-based
[2] = system: E. coli ATCC 35218 (TEM-1 β-lactamase producer); assay: Broth microdilution MIC (time-kill study); assay type: cell-based, Escherichia coli
[3] = system: E. coli (ATCC 25922, ATCC 35218, MMX 1312); assay: Agar dilution MIC (spontaneous mutation study; strain in conditions); assay type: cell-based, Escherichia coli; details: Escherichia coli
[4] = system: Bacteroides spp. spontaneous mutants; assay: Broth microdilution MIC of spontaneous mutants; assay type: cell-based; details: read-out: MIC
Experimental: Select isolates were subcultured onto agar containing drug at the selection concentration, were identified by MALDI, and were frozen for broth microdilution MIC testing as described below.
To determine whether colonies growing on drug selection plates had elevated MIC values to the selecting antibiotic, susceptibility testing by broth microdilution was conducted on isolated mutants following methodology recommended by CLSI (1), (2), and (3) “Performance Standards for Antimicrobial Susceptibility Testing; Twenty-Eighth Informational Supplement.,” CLSI document M100-S28, 2018.
All wells in columns 2 through 12 of a standard 96-well microdilution plate (Costar 3795) were filled with 150 μL of the appropriate diluent. Then, 300 μL of the test agents were added to the wells of column 1 of the plates at […] the highest final concentration to be tested. Serial two-fold dilutions were made across the rows through column 11 using the Biomek 2000. The wells of column 12 contained no drug and served as the growth control wells. This plate served as the “mother plate” from which selected MIC assay plates or “daughter plates” were made.
Daughter plates for anaerobic organisms were transferred to a Bactron II anaerobic chamber (Sheldon Manufacturing Inc., Cornelius, Oreg.) to reduce for 1 hour prior to inoculation. The inoculum for each organism was prepared in the anaerobic chamber and dispensed into sterile disposable reservoirs. Inoculation was completed using a multichannel pipette to transfer 10 μL of the inoculum into each well of the daughter plate. This yielded a final cell concentration in the daughter plates of approximately 1×10^6 CFU/mL.

[5] = 10 Clostridium spp. clinical isolates

C[C@@H](O)[C@H]1C(=O)N2C(C(=O)O)=C(S[C@@H]3CN[C@H](C(=O)N(C)C)C3)[C@H](C)[C@H]12 [meropenem]
Cumulative percentage of isolates inhibited at MIC ([1]; MIC 0.5 μg/mL): 43.3%
Number of test isolates at MIC ([1]; MIC 0.5 μg/mL): 2
Cumulative percentage of isolates inhibited at MIC ([1]; MIC 1 μg/mL): 53.3%
Number of test isolates at MIC ([1]; MIC 1 μg/mL): 3
Cumulative percentage of isolates inhibited at MIC ([1]; MIC 2 μg/mL): 70.0%
Number of test isolates at MIC ([1]; MIC 2 μg/mL): 5
Cumulative percentage of isolates inhibited at MIC ([1]; MIC 4 μg/mL): 76.7%
Number of test isolates at MIC ([1]; MIC 4 μg/mL): 2
Cumulative percentage of isolates inhibited at MIC ([1]; MIC 8 μg/mL): 100.0%
Number of test isolates at MIC ([1]; MIC 8 μg/mL): 7
isolates susceptible (Clostridium spp.): One hundred
relative activity among drugs tested (Clostridium spp.): meropenem and metronidazole had similar activity; also recorded: most active agent
% S (Clostridium spp.; [5]): 100%
MIC50 (Clostridium spp.; [5]): 1 µg/mL (≈ 2.61 µM)
MIC90 (Clostridium spp.; [5]): 2 µg/mL (≈ 5.22 µM)
MIC range (Clostridium spp.; [5]): 0.06 to 2 µg/mL
MIC50 (Clostridium spp.; Clostridium): 1 µg/mL (≈ 2.61 µM)
MIC90 (Clostridium spp.; Clostridium): 2 µg/mL (≈ 5.22 µM)
Mode (Clostridium spp.; modal MIC, 10 Clostridium spp. clinical isolates): 1 µg/mL
MIC ([2]; E. coli ATCC 35218): 0.015 µg/mL (≈ 0.0391 µM)
MIC ([2]; Escherichia coli, ATCC35218): 0.015 µg/mL (≈ 0.0391 µM)
MIC ([3]; read-out: Agar MIC, E. coli ATCC 25922): 0.015 µg/mL (≈ 0.0391 µM)
MIC ([3]; read-out: Agar MIC, E. coli ATCC 35218): 0.015 µg/mL (≈ 0.0391 µM)
MIC ([3]; read-out: Agar MIC, E. coli MMX 1312): 0.015 µg/mL (≈ 0.0391 µM)
MIC ([3]; read-out: MIC values (agar dilution), over evaluated E. coli isolates (range stated jointly with other groups)): 0.008 to 0.12 µg/mL (≈ 0.0209 to 0.313 µM)
MIC ([4]; B. fragilis ATCC 25285, selected on rifaximin 4X MIC, Colony A): 0.03 µg/mL
MIC ([4]; B. fragilis ATCC 25285, selected on rifaximin 4X MIC, Colony B): 0.06 µg/mL
MIC ([4]; B. fragilis ATCC 25285, selected on rifaximin 8X MIC, Colony A): 0.06 µg/mL
MIC ([4]; B. fragilis ATCC 25285, selected on rifaximin 8X MIC, Colony B): 0.06 µg/mL
MIC ([4]; B. fragilis ATCC 25285 Parent): 0.06 µg/mL
MIC ([4]; B. ovatus MMX 3503, selected on rifaximin 4X MIC, Colony A): 0.12 µg/mL
MIC ([4]; B. ovatus MMX 3503, selected on rifaximin 4X MIC, Colony B): 0.12 µg/mL
MIC ([4]; B. ovatus MMX 3503, selected on rifaximin 8X MIC, Colony A): 0.12 µg/mL
MIC ([4]; B. ovatus MMX 3503, selected on rifaximin 8X MIC, Colony B): 0.12 µg/mL
MIC ([4]; B. ovatus MMX 3503 Parent): 0.12 µg/mL
MIC ([4]; B. vulgatus ATCC 8482, selected on ceftriaxone 4X MIC, Colony A): 0.25 µg/mL
MIC ([4]; B. vulgatus ATCC 8482, selected on ceftriaxone 4X MIC, Colony B): 0.25 µg/mL
MIC ([4]; B. vulgatus ATCC 8482, selected on rifaximin 4X MIC, Colony A): 0.12 µg/mL
MIC ([4]; B. vulgatus ATCC 8482, selected on rifaximin 4X MIC, Colony B): 0.12 µg/mL
MIC ([4]; B. vulgatus ATCC 8482, selected on rifaximin 8X MIC, Colony A): 0.25 µg/mL
MIC ([4]; B. vulgatus ATCC 8482, selected on rifaximin 8X MIC, Colony B): 0.12 µg/mL
MIC ([4]; B. vulgatus ATCC 8482 Parent (Table 50)): 0.12 µg/mL
MIC ([4]; B. vulgatus ATCC 8482 Parent (Table 54)): 0.12 µg/mL

CN[C@H](CC(C)C)C(=O)N[C@H]1C(=O)N[C@@H](CC(N)=O)C(=O)N[C@H]2C(=O)N[C@H]3C(=O)N[C@H](C(=O)N[C@H](C(=O)O)c4cc(O)cc(O)c4-c4cc3ccc4O)[C@H](O)c3ccc(c(Cl)c3)Oc3cc2cc(c3O[C@@H]2O[C@H](CO)[C@@H](O)[C@H](O)[C@H]2O[C@H]2C[C@](C)(N)[C@H](O)[C@H](C)O2)Oc2ccc(cc2Cl)[C@H]1O [vancomycin, Vancomycin]
MIC ([2]; Escherichia coli, ATCC35218, E. coli ATCC 35218, read-out: MIC): > 16 µg/mL

piperacillin/tazobactam [piperacillin-tazobactam]
MIC ([2]; E. coli ATCC 35218): 2/4
